Experimental data published in PubChem BioAssay (NCI).
Values joined by “and” are separate entries in the source; they are usually repeats but may differ in a detail not shown here. Equal entries are not always repeated.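 1) Cells in 96-well plates. 2) Compound, 48 h, 5 concentrations. 3) Linear interpolation between surrounding doses. 4) Unreached endpoint = highest concentration. Abbreviation: GI50, concentration required for 50% inhibition of growth. The concentration for full growth arrest is given as TGI.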

What was measured:
Assay in all cases: growth of human tumour cells (NCI), 48 h
K-562 leukemia = tested on: K-562 leukemia
HCC-2998 colon = tested on: HCC-2998 colon
SK-OV-3 ovarian = tested on: SK-OV-3 ovarian
SK-MEL-2 melanoma = tested on: SK-MEL-2 melanoma
U251 CNS = tested on: U251 CNS
SNB-75 CNS = tested on: SNB-75 CNS
OVCAR-3 ovarian = tested on: OVCAR-3 ovarian
CAKI-1 renal = tested on: CAKI-1 renal
SK-MEL-28 melanoma = tested on: SK-MEL-28 melanoma
HL-60(TB) leukemia = tested on: HL-60(TB) leukemia

| SMILES | GI50 (K-562 leukemia) | TGI (K-562 leukemia) | GI50 (HCC-2998 colon) | TGI (HCC-2998 colon) | GI50 (SK-OV-3 ovarian) | TGI (SK-OV-3 ovarian) | GI50 (SK-MEL-2 melanoma) | TGI (SK-MEL-2 melanoma) | GI50 (U251 CNS) | TGI (U251 CNS) | GI50 (SNB-75 CNS) | TGI (SNB-75 CNS) | GI50 (OVCAR-3 ovarian) | TGI (OVCAR-3 ovarian) | GI50 (CAKI-1 renal) | TGI (CAKI-1 renal) | GI50 (SK-MEL-28 melanoma) | TGI (SK-MEL-28 melanoma) | GI50 (HL-60(TB) leukemia) | TGI (HL-60(TB) leukemia) |
| --- | --- | --- | --- | --- | --- | --- | --- | --- | --- | --- | --- | --- | --- | --- | --- | --- | --- | --- | --- | --- |
| COc1cc2c(cc1OCCCN1CCN(c3cc(=O)oc4c(C)c(OC)ccc34)CC1)N=C[C@@H]1CCCN1C2=O | 0.456 µM | > 20.9 µM | 1.44 µM | 2.89 µM | 10.2 µM | > 78.4 µM | 1.09 µM | 3.98 µM | 1.58 µM | > 100 µM | 0.866 µM | 3.22 µM | 0.471 µM | 3.65 µM | 2.46 µM | 7.17 µM | 2.56 µM | 8.45 µM | 0.456 µM | 3.83 µM |
| CNC(=O)OCc1[nH]ccc2c(C)c3nc4ccc(OC)cc4c3cc12 |  | > 22.5 µM |  | > 53.5 µM |  | > 100 µM |  | > 48 µM |  | > 59.5 µM |  | > 100 µM |  | > 67.8 µM |  | > 100 µM |  | > 81 µM |  | 19 µM |
| N#C[C@H]1Nc2ccccc2[C@@H](O)C1O (stereo not given in full) |  | > 100 µM |  | > 100 µM |  | > 100 µM |  | > 100 µM |  | > 100 µM |  | > 100 µM |  | > 100 µM |  | > 100 µM |  | > 100 µM |  | > 100 µM |
| O=C(O)CCCNS(=O)(=O)c1ccc2ccccc2c1 |  | > 100 µM |  | > 100 µM |  | > 100 µM |  | > 100 µM |  | > 100 µM |  | > 100 µM |  | > 100 µM |  | > 100 µM |  | > 100 µM |  | > 100 µM |
| CC(C)=CC1CC(C)C2(CCC3(C)CC4C(C(=O)CC4(C)O)/C(C=O)=C\CC32)O1 (stereo not given) |  | 0.232 µM |  | 0.328 µM |  | 0.297 µM |  | 0.316 µM |  | 0.197 µM |  | 0.237 µM |  | 0.0503 µM |  | 0.192 µM |  | 0.277 µM |  | 0.0576 µM |
| CC1=CC2CC(C)C1(C)CCc1ccoc12 (stereo not given) |  | > 100 µM |  | > 100 µM |  | > 100 µM |  | > 100 µM |  | > 100 µM |  | > 100 µM |  | > 100 µM |  | > 100 µM |  | > 100 µM |  | > 100 µM |
| C[C@@H]1COC(Nc2ccc3ncnc(Nc4ccc(OCc5nccs5)c(Cl)c4)c3c2)=N1 | 4.05 µM and 4.08 µM | > 10 µM and 33.2 µM | > 10 µM and 11.9 µM | > 10 µM and 39.6 µM | 0.167 µM and 0.178 µM | > 10 µM and 14.4 µM | 4.43 µM and 3.47 µM | > 10 µM and 11.1 µM | 9.24 µM and 8.55 µM | > 10 µM and 26.6 µM | 8.88 µM and 6.83 µM | > 10 µM and 21.4 µM | 2.07 µM and 2.67 µM | > 10 µM and 14.2 µM | 2.24 µM and 0.685 µM | > 10 µM and 15.1 µM | 4.46 µM and 5.45 µM | > 10 µM and 18.9 µM | 3.7 µM and 4.2 µM | > 100 µM |
| O=[N+]([O-])c1ccc(N=Nc2c(O)[nH]c3ccccc23)cc1 |  | > 84.6 µM |  | > 100 µM |  | 65.3 µM |  | > 100 µM |  | > 100 µM |  | 42.6 µM |  | 35.2 µM |  | 40.4 µM |  | > 100 µM |  | > 77.8 µM |
| Oc1cc(Cl)ccc1Cc1ccc(Cl)cc1O | 5.69 µM | > 100 µM | 14.6 µM | 27.7 µM | 20.6 µM | 43.3 µM | 14.8 µM | 38.8 µM | 6.7 µM | 21.7 µM | 13.5 µM | 34.4 µM | 3.71 µM | 13.9 µM | 18.2 µM | 43 µM | 8.26 µM | 20.7 µM | 9.67 µM | > 100 µM |
| CCOC(=O)C(=O)Nc1ccc(Cl)c(C(F)(F)F)c1 |  | > 100 µM |  | > 100 µM |  | > 100 µM |  | > 100 µM |  | > 100 µM |  | > 100 µM |  | > 100 µM |  | > 100 µM |  | > 100 µM |  | > 100 µM |
| COc1cc2ncn(-c3cc(OCc4ccccc4S(C)(=O)=O)c(C#N)s3)c2cc1OC | > 25 µM | > 25 µM | > 25 µM | > 25 µM | > 16.1 µM | > 25 µM | > 23.4 µM | > 25 µM | > 22.3 µM | > 25 µM | 8.19 µM | > 22.6 µM | > 25 µM | > 25 µM | > 25 µM | > 25 µM | > 25 µM | > 25 µM | > 25 µM | > 25 µM |
| Cc1ccc(/C(=C/C=C(C#N)C#N)Sc2ccccn2)cc1 | 1.55 µM | 10.8 µM | 3.85 µM | 8.84 µM | 19.6 µM | 65.8 µM | 7.15 µM | 35.6 µM | 5.02 µM | 20.3 µM | 5.18 µM | 18.4 µM | 2.09 µM | 8.25 µM | 5.62 µM | 11.8 µM | 2.08 µM | 4.51 µM | 0.328 µM | 3.72 µM |
